Literature values as cited in patent US20070287931A1, “Methods and systems for administering an appropriate pharmacological treatment to a patient for managing epilepsy and other neurological disorders” (priority 2006, published 2007).
Read-outs that look alike come from different tables or passages of the source.

Tests used:
[1] = intranasal
[2] = test system: seizure; details: intranasal
[3] = for plasma concentration per daily dose of 1 mg/kg: per daily dose of 1 mg/kg; for plasma concentration per daily dose of 1 mg/kg of primidone: per daily dose of 1 mg/kg of primidone
[4] = test system: seizures
[5] = test system: partial seizures; details: controlled trials, adjunctive therapy of partial seizures in adults, oral
[6] = test system: dopaminergic and serotonergic neurotransmission; details: in vivo microdialysis
[7] = test system: sodium channels; details: in vitro
[8] = test system: carbonic anhydrase
[9] = test system: rat hippocampal slices; details: 10-30 μg/mL
[10] = test system: GABA/benzodiazepine receptor ionophore complex; details: in vitro
[11] = test system: cultured mouse spinal cord neurons; details: 10-30 μg/mL
[12] = test system: T-type Ca^2+ currents; details: in vitro

Cc1ncc2n1-c1ccc(Cl)cc1C(c1ccccc1F)=NC2 [Midazolam]
KA (absorption rate constant) [1]: 2.46 h⁻¹
tE1/2 (elimination half-life) [1]: 3.1 h
time to terminate a seizure [2]: 30 s

CCC1(C)CC(=O)NC1=O (stereo not drawn) [ethosuximide, Ethosuximide]
plasma concentration per daily dose of 1 mg/kg ([3]; long-term therapy): about 2 μg/ml

CCC1(c2ccccc2)C(=O)NCNC1=O [primidone, Primidone]
plasma concentration per daily dose of 1 mg/kg of primidone ([3]; long term therapy): about 1 μg/ml

CCC1(c2ccccc2)C(=O)NC(=O)NC1=O [phenobarbital, Phenobarbital]
plasma concentration per daily dose of 1 mg/kg ([3]; long term therapy, adults): about 10 μg/ml
plasma concentration per daily dose of 1 mg/kg of primidone ([3]; long term therapy): about 2 μg/ml

O=C1NC(=O)C(c2ccccc2)(c2ccccc2)N1 [Phenyloin, diphenylhydantoin]
concentrations giving chronic control of seizures [4]: above 10 μg/ml
concentrations at which toxic effects such as nystagmus develop: around 20 μg/ml

NS(=O)(=O)Cc1noc2ccccc12 [zonisamide, 1,2-benzisoxazole-3-methanesulfonamide]
effective doses [5]: 100 to 600 mg/day
dopaminergic and serotonergic neurotransmission [6]: facilitates both dopaminergic and serotonergic neurotransmission
effect on sodium channels [7]: blocks sodium channels
carbonic anhydrase inhibiting activity [8]: weak
neuronal or glial uptake of [3H]-GABA [9]: without affecting
binding to the GABA/benzodiazepine receptor ionophore complex [10]: binds to the GABA/benzodiazepine receptor ionophore complex in an allosteric fashion which does not produce changes in chloride flux
postsynaptic GABA or glutamate responses [11]: without affecting
synaptically-driven electrical activity [11]: suppresses synaptically-driven electrical activity
effect on voltage-dependent, transient inward currents (T-type Ca2+ currents) [12]: reduces voltage-dependent, transient inward currents
